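All cell lines were grown in 96-well plates and treated with compound for 48 hours. Here, GI50 denotes the concentration required for 50% inhibition of growth.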 Active and inactive are the calls of the source. No stated cut-off is given here; in the data, active = GI50 up to about 1.1 µM and inactive = higher.
How the values were obtained:
Test in all cases: NCI anticancer screen, dose series, 48 h
SF-295 = system: SF-295
HCT-15 = system: HCT-15
MCF7 = system: MCF7
RPMI-8226 = system: RPMI-8226
SN12C = system: SN12C
MDA-MB-231 = system: MDA-MB-231
NCI-H226 = system: NCI-H226
SK-MEL-28 = system: SK-MEL-28
SW-620 = system: SW-620
SNB-19 = system: SNB-19
HCC 2998 = system: HCC 2998
MDA-MB-435 = system: MDA-MB-435
UACC-62 = system: UACC-62
Hs-578T = system: Hs-578T
NCI-H460 = system: NCI-H460
NCI/ADR-RES = system: NCI/ADR-RES
SK-MEL-2 = system: SK-MEL-2
U-251 = system: U-251
OVCAR-5 = system: OVCAR-5
OVCAR-4 = system: OVCAR-4

COc1cccc(C=C2N=C(c3ccccc3)N(n3c(-c4ccccc4)nc4ccccc4c3=O)C2=O)c1
GI50 (SF-295): 57.4 µM (inactive) | GI50 (HCT-15): 54.3 µM | GI50 (MCF7): 52 µM (inactive) | GI50 (RPMI-8226): 40.2 µM (inactive) | GI50 (SN12C): 57.8 µM (inactive) | GI50 (MDA-MB-231): 57.9 µM (inactive) | GI50 (NCI-H226): > 100 µM (inactive) | GI50 (SK-MEL-28): 63.2 µM (inactive) | GI50 (SW-620): 74.3 µM (inactive) | GI50 (SNB-19): 64.6 µM (inactive) | GI50 (HCC 2998): 64.6 µM (inactive) | GI50 (MDA-MB-435): > 100 µM (inactive) | GI50 (UACC-62): 26.2 µM (inactive) | GI50 (Hs-578T): 48.2 µM (inactive) | GI50 (NCI-H460): 35.2 µM (inactive)

S=C(c1c[nH]c2ccccc12)N1CCN(Cc2ccccc2)CC1
GI50 (SF-295): 14.8 µM (inactive) | GI50 (HCT-15): 13.6 µM | GI50 (NCI/ADR-RES): 17 µM (inactive) | GI50 (MCF7): 22.2 µM (inactive) | GI50 (SK-MEL-2): 18.9 µM (inactive) | GI50 (RPMI-8226): 13 µM (inactive) | GI50 (SN12C): 16.5 µM (inactive) | GI50 (MDA-MB-231): 17 µM (inactive) | GI50 (NCI-H226): 15 µM (inactive) | GI50 (SK-MEL-28): 17.3 µM (inactive) | GI50 (SW-620): 17.8 µM (inactive) | GI50 (U-251): 19.5 µM (inactive) | GI50 (OVCAR-5): 16.2 µM (inactive) | GI50 (SNB-19): 14.9 µM (inactive) | GI50 (MDA-MB-435): 15.5 µM (inactive) | GI50 (UACC-62): 15.6 µM (inactive) | GI50 (Hs-578T): 17.4 µM (inactive) | GI50 (NCI-H460): 25.2 µM (inactive)

CCCCCCc1nn2c(-c3ccc(C)cc3)nnc2s1
GI50 (OVCAR-4): > 100 µM (inactive) | GI50 (SF-295): > 100 µM (inactive) | GI50 (HCT-15): > 100 µM | GI50 (NCI/ADR-RES): > 100 µM (inactive) | GI50 (MCF7): > 100 µM (inactive) | GI50 (SK-MEL-2): > 100 µM (inactive) | GI50 (RPMI-8226): > 100 µM (inactive) | GI50 (SN12C): > 100 µM (inactive) | GI50 (MDA-MB-231): > 100 µM (inactive) | GI50 (SK-MEL-28): > 100 µM (inactive) | GI50 (SW-620): > 100 µM (inactive) | GI50 (U-251): 32.6 µM (inactive) | GI50 (OVCAR-5): > 100 µM (inactive) | GI50 (SNB-19): > 100 µM (inactive) | GI50 (MDA-MB-435): > 100 µM (inactive) | GI50 (UACC-62): > 100 µM (inactive) | GI50 (Hs-578T): > 100 µM (inactive) | GI50 (NCI-H460): 80 µM (inactive)

O=c1[nH]n(Cc2ccccc2Cl)c2ccccc12
GI50 (OVCAR-4): > 100 µM (inactive) | GI50 (HCT-15): > 100 µM | GI50 (NCI/ADR-RES): > 100 µM (inactive) | GI50 (SK-MEL-2): > 100 µM (inactive) | GI50 (RPMI-8226): > 100 µM (inactive) | GI50 (SN12C): > 100 µM (inactive) | GI50 (MDA-MB-231): > 100 µM (inactive) | GI50 (NCI-H226): > 100 µM (inactive) | GI50 (SK-MEL-28): > 100 µM (inactive) | GI50 (SW-620): > 100 µM (inactive) | GI50 (U-251): > 100 µM (inactive) | GI50 (OVCAR-5): > 100 µM (inactive) | GI50 (SNB-19): > 100 µM (inactive) | GI50 (HCC 2998): > 100 µM (inactive) | GI50 (MDA-MB-435): > 100 µM (inactive) | GI50 (UACC-62): > 100 µM (inactive) | GI50 (Hs-578T): > 100 µM (inactive) | GI50 (NCI-H460): > 100 µM (inactive)

COC(=O)c1cc2c3c(c(C(C)=O)c(OC)c2[nH]1)NCC3
GI50 (SF-295): > 50 µM (inactive) | GI50 (HCT-15): > 50 µM | GI50 (NCI/ADR-RES): > 50 µM (inactive) | GI50 (MCF7): > 50 µM (inactive) | GI50 (SK-MEL-2): > 50 µM (inactive) | GI50 (RPMI-8226): > 50 µM (inactive) | GI50 (SN12C): > 50 µM (inactive) | GI50 (MDA-MB-231): > 50 µM (inactive) | GI50 (NCI-H226): 34.5 µM (inactive) | GI50 (SW-620): > 50 µM (inactive) | GI50 (U-251): > 50 µM (inactive) | GI50 (OVCAR-5): > 50 µM (inactive) | GI50 (SNB-19): > 50 µM (inactive) | GI50 (MDA-MB-435): > 50 µM (inactive) | GI50 (UACC-62): > 50 µM (inactive) | GI50 (Hs-578T): > 50 µM (inactive) | GI50 (NCI-H460): > 50 µM (inactive)

C=C1CC(OC)(C(OC)C(=O)N(C)[C@H]2OCO[C@H]3C2O[C@H](C[C@@H](COC)OC)C(C)(C)C3OC)O[C@H](C)[C@@H]1C (some centres not stated)
GI50 (OVCAR-4): 3.61 µM (inactive) | GI50 (SF-295): 7 µM (inactive) | GI50 (HCT-15): 18 µM | GI50 (NCI/ADR-RES): 7.91 µM (inactive) | GI50 (MCF7): 5.3 µM (inactive) | GI50 (RPMI-8226): 17.2 µM (inactive) | GI50 (SN12C): 22.5 µM (inactive) | GI50 (NCI-H226): 6.19 µM (inactive) | GI50 (SK-MEL-28): 8.18 µM (inactive) | GI50 (SW-620): 14 µM (inactive) | GI50 (U-251): 10.6 µM (inactive) | GI50 (OVCAR-5): 26.7 µM (inactive) | GI50 (SNB-19): 8.97 µM (inactive) | GI50 (HCC 2998): 10.8 µM (inactive) | GI50 (UACC-62): 14.5 µM (inactive) | GI50 (NCI-H460): 9.46 µM (inactive)

N#CCCN(CCC#N)c1ccc(/C=C2\N=C(CN3C(=O)c4ccccc4C3=O)OC2=O)cc1
GI50 (OVCAR-4): > 100 µM (inactive) | GI50 (SF-295): > 100 µM (inactive) | GI50 (HCT-15): > 100 µM | GI50 (SK-MEL-2): > 100 µM (inactive) | GI50 (RPMI-8226): 39.3 µM (inactive) | GI50 (SN12C): > 100 µM (inactive) | GI50 (NCI-H226): > 100 µM (inactive) | GI50 (SK-MEL-28): > 100 µM (inactive) | GI50 (SW-620): > 100 µM (inactive) | GI50 (U-251): > 100 µM (inactive) | GI50 (OVCAR-5): > 100 µM (inactive) | GI50 (SNB-19): > 100 µM (inactive) | GI50 (HCC 2998): > 100 µM (inactive) | GI50 (UACC-62): > 100 µM (inactive) | GI50 (NCI-H460): > 100 µM (inactive)

CN1CCC(c2c(O)cc(O)c3c(=O)cc(-c4ccccc4Cl)oc23)C(O)C1 (configuration not stated)
GI50 (OVCAR-4): 0.124 µM (active) | GI50 (SF-295): < 0.0253 µM (active) | GI50 (HCT-15): 0.057 µM | GI50 (SK-MEL-2): 0.0323 µM (active) | GI50 (RPMI-8226): < 0.01 µM (active) | GI50 (SN12C): 0.143 µM (active) | GI50 (NCI-H226): 0.0336 µM (active) | GI50 (SK-MEL-28): 0.0735 µM (active) | GI50 (SW-620): 0.0339 µM (active) | GI50 (U-251): 0.0615 µM (active) | GI50 (OVCAR-5): 0.128 µM (active) | GI50 (SNB-19): 0.0526 µM (active) | GI50 (HCC 2998): 0.165 µM (active) | GI50 (UACC-62): 0.0289 µM (active) | GI50 (NCI-H460): 0.0592 µM (active)

Reference: ChEMBL document CHEMBL1201862, “PubChem BioAssay data set” (2004)
